Earlier results as cited in patent US11771704B1, “Methods of using rho kinase inhibitors to treat alzheimer's disease” (priority 2020, dated 2023).

Key:
animal model = settings: in vivo; cited from earlier work
[1] = target: p38 mitogen-activated protein kinase (Homo sapiens, UniProt Q16539); settings: cited from earlier work
[2] = test system: triple transgenic mouse model (APP Swedish, MAPT P301L, and PSEN1 M146V); settings: 10 mg/kg/day intraperitoneally (57 mg HED); cited from earlier work
APP/PS1 transgenic mice = settings: 5 and 10 mg/kg/day intraperitoneally (70, 140 mg HED); cited from earlier work
streptozotocin rats = settings: 5 and 10 mg/kg/day intraperitoneally (226 mg HED); cited from earlier work
triple transgenic mice = settings: 10 or 12 months of age, in water at 30 mg/kg and 100 mg/kg; cited from earlier work
[3] = in vivo, 1-hydroxy metabolite; cited from earlier work

Chain of p38 mitogen-activated protein kinase (Q16539 whole entry): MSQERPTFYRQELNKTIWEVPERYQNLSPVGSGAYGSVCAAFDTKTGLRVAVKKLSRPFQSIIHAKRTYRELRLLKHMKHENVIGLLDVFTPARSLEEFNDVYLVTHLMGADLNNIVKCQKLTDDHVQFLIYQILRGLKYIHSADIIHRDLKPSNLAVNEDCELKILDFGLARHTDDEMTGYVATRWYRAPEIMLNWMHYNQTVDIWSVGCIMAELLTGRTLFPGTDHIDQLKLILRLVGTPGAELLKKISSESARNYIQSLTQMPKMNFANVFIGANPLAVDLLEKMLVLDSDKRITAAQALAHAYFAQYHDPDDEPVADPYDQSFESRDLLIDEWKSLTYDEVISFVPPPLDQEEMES

O=c1ncn2nc(Sc3ccc(F)cc3F)ccc2c1-c1c(Cl)cccc1Cl [Neflamapimod]
efficacy in an animal model (animal model): showed efficacy
primary endpoint of improving episodic memory ([1]; Phase 2): failed
tau in the cerebrospinal fluid ([1]; Phase 2): reducing
Aβ deposition ([1]; humans): no effect

Cl.O=S(=O)(c1cccc2cnccc12)N1CCCNCC1 [fasudil, Hexahydro-1-(5-Isoquinolinesulfonyl)-1H-1,4-Diazepine Monohydrochloride Hemihydrate]
β-amyloid plaques in vivo [2]: reduce
latency distance and quadrant time in the Morris water maze (APP/PS1 transgenic mice): improved
latency distance and quadrant time in the Morris water maze (streptozotocin rats): improved
spatial memory (triple transgenic mice): did not observe improvements

O=S(=O)(c1cccc2c(O)nccc12)N1CCCNCC1 [M3, hydroxyfasudil]
half-life [3]: about 8 hours
